# Like-named read-outs stand apart in the source and are kept apart here.
# What was measured:
# human CD73 = target: T1, human CD73 (Homo sapiens, UniProt P21589); experiment: Inhibition of 5′-Nucleotidase Activity of CD73 (Assay 1); type: biochemical; conditions: human CD73 4 ng/ml, 50 μM CMP, 20 min at RT, malachite green readout; read-out: Assay 1: IC50, inhibition of 5′-nucleotidase activity of CD73
# T1 construct: purchased R&D Systems 5795-EN-010
# T1 sequence (P21589 27-549): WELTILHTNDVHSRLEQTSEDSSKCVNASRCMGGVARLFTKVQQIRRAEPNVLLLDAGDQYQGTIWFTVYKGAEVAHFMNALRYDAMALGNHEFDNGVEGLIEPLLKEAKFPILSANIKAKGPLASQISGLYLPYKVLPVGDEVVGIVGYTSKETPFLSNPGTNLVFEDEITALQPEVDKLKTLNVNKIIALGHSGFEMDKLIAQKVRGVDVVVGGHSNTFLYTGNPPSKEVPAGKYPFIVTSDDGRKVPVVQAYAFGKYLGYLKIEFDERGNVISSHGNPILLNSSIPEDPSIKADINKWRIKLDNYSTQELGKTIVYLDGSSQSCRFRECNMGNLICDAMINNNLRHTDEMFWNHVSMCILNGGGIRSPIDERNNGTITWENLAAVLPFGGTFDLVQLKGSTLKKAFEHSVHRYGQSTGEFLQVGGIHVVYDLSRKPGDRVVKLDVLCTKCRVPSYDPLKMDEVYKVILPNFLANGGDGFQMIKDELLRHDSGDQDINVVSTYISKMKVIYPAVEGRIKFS
# Procedure: Inhibition of 5′-Nucleotidase Activity of CD73 (Assay 1)
# Compounds of the present invention were tested for the ability to inhibit CD73 enzyme activity. Tested compounds were dissolved in DMSO (50× final concentration), and 3.2 μL of the solutions added to 96-well polystyrene plates. To these wells were added, 100 μL of human CD73 (R&D Systems Cat. No. 5795-EN-010) and 57 μL of cytidine-5′-monophosphate (CMP) solutions in assay buffer (25 mM Tris-HCl, pH 7.4, 0.005% Brij-35) were added to achieve final concentrations in the assay of 4 ng/ml CD73 and 50 μM of CMP. The assay mixture was incubated for 20 min at RT. The reaction was stopped by addition of 40 μL of malachite green reagent which was prepared by mixing together 10 ml 2M H2SO4, 2.5 ml of 15% ammonium molybdate and 0.2 ml of 11% Tween-20. The mixture was agitated vigorously for 10 min at RT, and absorbance at 620 nm was determined on a microplate spectrophotometer. […] The IC50 values were derived using a non-linear 4 parameter logistic model (XLFit software, IDBS) and correspond to the inflection points on dose-response curves.
# [1] = target: T2, CD73 on U138 neuroglioma cells (Homo sapiens, UniProt P21589); experiment: Inhibition of Ecto-5′-Nucleotidase Activity in U138 Neuroglioma Cells (Assay 2); type: cell-based
# T2 construct: U138 neuroglioma cells, which express CD73 on their surface; endogenous in cells; host or cells: U138 neuroglioma cells (ATCC)
# T2 sequence (P21589 27-549): T1 sequence (P21589 27-549)
# Procedure: Inhibition of Ecto-5′-Nucleotidase Activity in U138 Neuroglioma Cells (Assay 2)
# U138 cells were obtained from the American Type Culture Collection (ATCC) (Manassas, Va.), and cultured in complete growth media (DMEM, 10% FBS, 1 mM L-glutamine, 100 U penicillin-streptomycin) at 37° C., 5% CO2. The day before the experiment, cells were seeded at 2,500 cells/well in 100 μL of complete media into 96-well plates. Cells were washed twice with 200 μL of assay buffer (20 mM HEPES, pH 7.4, 137 mM NaCl, 5.4 mM KCl, 1.3 mM CaCl2, 4.2 mM NaHCO3, 1 mg/mL glucose) to remove residual inorganic phosphate. After washing, assays contained serial dilutions of test compounds and 50 μM of cytidine-5′-monophosphate (CMP) in a total volume of 200 μL of assay buffer, with a final DMSO concentration ≤0.1%. After 2 hr at 37° C., 5% CO2, 100 μL of supernatant was removed from the cells and the concentration of inorganic phosphate was determined using malachite green reagent. IC50 values for test compounds were determined from nonlinear regression fits of the data using XLfit (IDBS).
# [2] = 50 μM CMP, 2 hr at 37° C., malachite green readout, read-out: Assay 2: IC50, inhibition of ecto-5′-nucleotidase activity in U138 neuroglioma cells
Structure (SMILES),IC50 (human CD73),"IC50 [1, 2]","IC50 ([1]; IC50 value for APCP (standard), standard in each experiment, typical range)"
"CCOC(=O)[C@H](OC[C@H]1O[C@@H](n2cnc3c(N)nc(Cl)nc32)[C@H](O)[C@@H]1O)P(=O)(O)O (single isomer, unassigned) [1, isomer 1]",< 100 nM,< 100 nM,
"CCOC(=O)[C@@H](OC[C@H]1O[C@@H](n2cnc3c(N)nc(Cl)nc32)[C@H](O)[C@@H]1O)P(=O)(O)O (single isomer, unassigned) [1, isomer 2]",100 to 1000 nM,100 to 1000 nM,
"CCOC(=O)[C@](C)(OC[C@H]1O[C@@H](n2cnc3c(N)nc(Cl)nc32)[C@H](O)[C@@H]1O)P(=O)(O)O (single isomer, unassigned) [Example 9]",< 100 nM,100 to 1000 nM,
"CCOC(=O)[C@@](C)(OC[C@H]1O[C@@H](n2cnc3c(N)nc(Cl)nc32)[C@H](O)[C@@H]1O)P(=O)(O)O (single isomer, unassigned) [Example 9a]",100 to 1000 nM,100 to 1000 nM,
"CS(=O)(=O)C(OC[C@H]1O[C@@H](n2cnc3c(N)nc(Cl)nc32)[C@H](O)[C@@H]1O)P(=O)(O)O (single isomer, unassigned) [Example 10]",100 to 1000 nM,100 to 1000 nM,
"CCS(=O)(=O)C(OC[C@H]1O[C@@H](n2cnc3c(N)nc(Cl)nc32)[C@H](O)[C@@H]1O)P(=O)(O)O (single isomer, unassigned) [Example 11]",< 100 nM,100 to 1000 nM,
"CCS(=O)(=O)C(OC[C@H]1O[C@@H](n2cnc3c(N)nc(Cl)nc32)[C@H](O)[C@@H]1O)P(=O)(O)O (single isomer, unassigned) [Example 11a]",100 to 1000 nM,> 1000 nM,
"CCCS(=O)(=O)[C@H](OC[C@H]1O[C@@H](n2cnc3c(N)nc(Cl)nc32)[C@H](O)[C@@H]1O)P(=O)(O)O (single isomer, unassigned) [Example 12]",< 100 nM,100 to 1000 nM,
"CC(C)CS(=O)(=O)[C@H](OC[C@H]1O[C@@H](n2cnc3c(N)nc(Cl)nc32)[C@H](O)[C@@H]1O)P(=O)(O)O (single isomer, unassigned) [Example 13]",< 100 nM,100 to 1000 nM,
"CC(C)COC(=O)[C@H](OC[C@H]1O[C@@H](n2cnc3c(N)nc(Cl)nc32)[C@H](O)[C@@H]1O)P(=O)(O)O (single isomer, unassigned) [Example 14]",< 100 nM,< 100 nM,
"CC(C)COC(=O)[C@@H](OC[C@H]1O[C@@H](n2cnc3c(N)nc(Cl)nc32)[C@H](O)[C@@H]1O)P(=O)(O)O (single isomer, unassigned) [Example 14a]",100 to 1000 nM,100 to 1000 nM,
"CC(C)(C)OC(=O)[C@H](OC[C@H]1O[C@@H](n2cnc3c(N)nc(Cl)nc32)[C@H](O)[C@@H]1O)P(=O)(O)O (single isomer, unassigned) [Example 15]",< 100 nM,< 100 nM,
"Nc1nc(Cl)nc2c1ncn2[C@@H]1O[C@H](CO[C@@H](C(=O)OCc2ccccc2)P(=O)(O)O)[C@@H](O)[C@H]1O (single isomer, unassigned) [Example 16]",< 100 nM,< 100 nM,
"CC(C)CNC(=O)[C@H](OC[C@H]1O[C@@H](n2cnc3c(N)nc(Cl)nc32)[C@H](O)[C@@H]1O)P(=O)(O)O (single isomer, unassigned) [Example 17]",< 100 nM,< 100 nM,
"CCNC(=O)[C@H](OC[C@H]1O[C@@H](n2cnc3c(N)nc(Cl)nc32)[C@H](O)[C@@H]1O)P(=O)(O)O (single isomer, unassigned) [Example 18]",< 100 nM,100 to 1000 nM,
"CC(C)(C)NC(=O)[C@H](OC[C@H]1O[C@@H](n2cnc3c(N)nc(Cl)nc32)[C@H](O)[C@@H]1O)P(=O)(O)O (single isomer, unassigned) [Example 19]",< 100 nM,< 100 nM,
"Cc1nnc(C(OC[C@H]2O[C@@H](n3cnc4c(N)nc(Cl)nc43)[C@H](O)[C@@H]2O)P(=O)(O)O)o1 (single isomer, unassigned) [Example 21]",< 100 nM,100 to 1000 nM,
"CCOC(=O)[C@H](OC[C@H]1O[C@@H](n2cnc3c(NC4CC4)nc(Cl)nc32)[C@H](O)[C@@H]1O)P(=O)(O)O (single isomer, unassigned) [Example 22]",< 100 nM,< 100 nM,
"CCOC(=O)[C@H](OC[C@H]1O[C@@H](n2cnc3c(NC)nc(Cl)nc32)[C@H](O)[C@@H]1O)P(=O)(O)O (single isomer, unassigned) [Example 23]",< 100 nM,< 100 nM,
"CCOC(=O)[C@H](OC[C@H]1O[C@@H](n2cnc3c(NCc4ccccc4)nc(Cl)nc32)[C@H](O)[C@@H]1O)P(=O)(O)O (single isomer, unassigned) [Example 24]",< 100 nM,< 100 nM,
"CCOC(=O)[C@H](OC[C@H]1O[C@@H](n2cnc3c(NC4CCCC4)nc(Cl)nc32)[C@H](O)[C@@H]1O)P(=O)(O)O (single isomer, unassigned) [Example 25]",< 100 nM,< 100 nM,
"Nc1ncnc2c1ncn2[C@@H]1O[C@H](COP(=O)(O)CP(=O)(O)O)[C@@H](O)[C@H]1O [APCP, adenosine 5′-(α,β-methylene)diphosphate, reference compound]",,,12 to 25 nM
"CCNC(=O)C(OC[C@H]1C[C@@H](n2cnc3c(NCC)ncnc32)[C@H](O)[C@@H]1O)P(=O)(O)O (stereo partly drawn) [Example 75, (2-(ethylamino)-1-(((1R,2R,3S,4R)-4-(6-(ethylamino)-9H-purin-9-yl)-2,3-dihydroxycyclopentyl)methoxy)-2-oxoethyl)phosphonic Acid]",> 1000 nM,,

# Continued, in another order:
IC50 (human CD73),"IC50 [1, 2]",Structure (SMILES),"IC50 ([1]; IC50 value for APCP (standard), standard in each experiment, typical range)"
100 to 1000 nM,100 to 1000 nM,"CC(C)(C)OC(=O)[C@@H](OC[C@H]1O[C@@H](n2cnc3c(N)nc(Cl)nc32)[C@H](O)[C@@H]1O)P(=O)(O)O (single isomer, unassigned) [Example 15a]",
100 to 1000 nM,< 100 nM,"CC(C)CNC(=O)[C@@H](OC[C@H]1O[C@@H](n2cnc3c(N)nc(Cl)nc32)[C@H](O)[C@@H]1O)P(=O)(O)O (single isomer, unassigned) [Example 17a]",
100 to 1000 nM,< 100 nM,"CCNC(=O)[C@@H](OC[C@H]1O[C@@H](n2cnc3c(N)nc(Cl)nc32)[C@H](O)[C@@H]1O)P(=O)(O)O (single isomer, unassigned) [Example 18a]",
100 to 1000 nM,100 to 1000 nM,"CC(C)(C)NC(=O)[C@@H](OC[C@H]1O[C@@H](n2cnc3c(N)nc(Cl)nc32)[C@H](O)[C@@H]1O)P(=O)(O)O (single isomer, unassigned) [Example 19a]",
100 to 1000 nM,> 1000 nM,"Cc1nnc(C(OC[C@H]2O[C@@H](n3cnc4c(N)nc(Cl)nc43)[C@H](O)[C@@H]2O)P(=O)(O)O)o1 (single isomer, unassigned) [Example 21a]",
100 to 1000 nM,100 to 1000 nM,"CCOC(=O)[C@@H](OC[C@H]1O[C@@H](n2cnc3c(NC4CC4)nc(Cl)nc32)[C@H](O)[C@@H]1O)P(=O)(O)O (single isomer, unassigned) [Example 22a]",
100 to 1000 nM,100 to 1000 nM,"CCOC(=O)[C@@H](OC[C@H]1O[C@@H](n2cnc3c(NC)nc(Cl)nc32)[C@H](O)[C@@H]1O)P(=O)(O)O (single isomer, unassigned) [Example 23a]",
100 to 1000 nM,100 to 1000 nM,"CCOC(=O)[C@@H](OC[C@H]1O[C@@H](n2cnc3c(NCc4ccccc4)nc(Cl)nc32)[C@H](O)[C@@H]1O)P(=O)(O)O (single isomer, unassigned) [Example 24a]",
